Measurements: the supplement of paper PMC8617591

Assays:
[1] = system: Mycobacterium tuberculosis Erdman (autoluminescent); assay: total FIC50 (Loewe) at 50% inhibition, three-drug combination (log2); higher = more antagonistic
Method: (§1)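 DiaMOND equipotent three-drug combination dose responses (10 doses, 1.5- or 2-fold spacing, centred on IC90) against autoluminescent M. tuberculosis Erdman in 8 in vitro models. Read-out is OD600, or luminescence for the intracellular and dormancy models, normalised to untreated wells. Hill-fit Einf, AUC25 and GRinf are potency metrics; FIC50 and FIC90 are total Loewe fractional inhibitory concentrations as log2 (negative = synergy).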

[2] = system: Mycobacterium tuberculosis Erdman (autoluminescent); assay: total FIC90 (Loewe) at 90% inhibition, three-drug combination (log2); higher = more antagonistic
Method: as §1

[3] = system: Mycobacterium tuberculosis Erdman (autoluminescent); assay: Einf, fitted maximum growth inhibition of three-drug combination (fraction); higher = stronger maximal inhibition
Method: as §1

[4] = system: Mycobacterium tuberculosis Erdman (autoluminescent); assay: AUC25, normalised area under dose response up to IC25 (three-drug combination) (fraction (0-1)); higher = more potent at low dose
Method: as §1

[5] = system: Mycobacterium tuberculosis Erdman (autoluminescent); assay: GRinf, maximum normalised growth rate inhibition (three-drug combination) (unitless (-1 to 1)); higher = less effect (negative = killing)
Method: as §1

CC(C)/N=c1\cc2n(-c3ccc(Cl)cc3)c3ccccc3nc-2cc1Nc1ccc(Cl)cc1 [clofazimine] + CC[C@@H](CO)NCCN[C@@H](CC)CO [ethambutol] + COc1c(N2C[C@@H]3CCCN[C@@H]3C2)c(F)cc2c(=O)c(C(=O)O)cn(C3CC3)c12 [moxifloxacin]
Conditions	AUC25, [4]	Einf, [3]	GRinf, [5]	total FIC50, [1]	total FIC90, [2]
in vitro model: acidic pH 5.7, time point: constant (~7 days, model-specific)	0.115	0.672	-0.00432	1.25	–
in vitro model: acidic pH 5.7, time point: terminal (~4-5 doublings, model-specific)	0.0596	0.925	-0.127	0.64	-0.564
in vitro model: intracellular J774, time point: constant = terminal	–	0.966	-0.457	–	-0.92

Conditions	AUC25, [4]	Einf, [3]	GRinf, [5]	total FIC50, [1]	total FIC90, [2]
in vitro model: butyrate, time point: constant (~7 days, model-specific)	0.11	0.96	-0.103	0.505	–
in vitro model: butyrate, time point: terminal (~4-5 doublings, model-specific)	0.0834	0.979	-0.104	0.581	0.553
in vitro model: cholesterol 0.05 mM, time point: constant (~7 days, model-specific)	0.123	0.651	-0.615	–	–
in vitro model: cholesterol 0.05 mM, time point: terminal (~4-5 doublings, model-specific)	0.117	0.885	-0.144	1.19	–
in vitro model: cholesterol-high 0.2 mM, time point: constant (~7 days, model-specific)	0.0933	0.95	-0.699	0.429	–
in vitro model: cholesterol-high 0.2 mM, time point: terminal (~4-5 doublings, model-specific)	0.0951	1	-0.973	0.534	0.957
in vitro model: dormancy (butyrate + nitrate, low O2), time point: constant (~7 days, model-specific)	0.0862	0.817	0.451	0.137	–
in vitro model: dormancy (butyrate + nitrate, low O2), time point: terminal (~4-5 doublings, model-specific)	0.113	0.977	-0.415	0.0118	0.798
in vitro model: standard 7H9 glycerol, time point: constant = terminal	0.0915	0.971	-0.184	0.258	0.732
in vitro model: valerate, time point: constant (~7 days, model-specific)	0.132	0.864	-0.0325	0.987	–
in vitro model: valerate, time point: terminal (~4-5 doublings, model-specific)	0.0712	0.903	0.0757	0.489	-1.39

NNC(=O)c1ccncc1 [isoniazid] + CC(=O)NC[C@H]1CN(c2ccc(N3CCOCC3)c(F)c2)C(=O)O1 [linezolid] + COc1c(N2C[C@@H]3CCCN[C@@H]3C2)c(F)cc2c(=O)c(C(=O)O)cn(C3CC3)c12 [moxifloxacin]
Conditions	AUC25, [4]	Einf, [3]	GRinf, [5]	total FIC50, [1]	total FIC90, [2]
in vitro model: acidic pH 5.7, time point: constant (~7 days, model-specific)	0.109	0.747	-0.275	0.122	–
in vitro model: acidic pH 5.7, time point: terminal (~4-5 doublings, model-specific)	0.0728	0.923	-0.258	1.49	0.715
in vitro model: intracellular J774, time point: constant = terminal	–	0.893	-0.0263	–	0.67

Conditions	AUC25, [4]	Einf, [3]	GRinf, [5]	total FIC50, [1]	total FIC90, [2]
in vitro model: butyrate, time point: constant (~7 days, model-specific)	0.086	0.917	0.00606	0.711	0.963
in vitro model: butyrate, time point: terminal (~4-5 doublings, model-specific)	0.0553	0.956	0.0163	0.753	0.721
in vitro model: cholesterol 0.05 mM, time point: constant (~7 days, model-specific)	0.149	0.654	-0.302	0.796	–
in vitro model: cholesterol 0.05 mM, time point: terminal (~4-5 doublings, model-specific)	0.15	0.909	-0.444	4.95	0.24
in vitro model: cholesterol-high 0.2 mM, time point: constant (~7 days, model-specific)	0.114	0.933	-0.214	0.427	1.53
in vitro model: cholesterol-high 0.2 mM, time point: terminal (~4-5 doublings, model-specific)	0.105	1	-0.842	0.413	0.848
in vitro model: dormancy (butyrate + nitrate, low O2), time point: constant (~7 days, model-specific)	0.0474	0.851	0.271	1.12	0.548
in vitro model: dormancy (butyrate + nitrate, low O2), time point: terminal (~4-5 doublings, model-specific)	0.0316	0.974	-0.0773	1	0.562
in vitro model: standard 7H9 glycerol, time point: constant = terminal	0.0712	0.97	-0.21	0.644	0.854
in vitro model: valerate, time point: constant (~7 days, model-specific)	0.104	0.888	-0.0253	0.337	–
in vitro model: valerate, time point: terminal (~4-5 doublings, model-specific)	0.0614	0.935	-0.00928	0.575	0.805

COc1c(N2C[C@@H]3CCCN[C@@H]3C2)c(F)cc2c(=O)c(C(=O)O)cn(C3CC3)c12 [moxifloxacin] + O=[N+]([O-])c1cn2c(n1)OC[C@@H](OCc1ccc(OC(F)(F)F)cc1)C2 [pretomanid] + CO[C@H]1/C=C/O[C@@]2(C)Oc3c(C)c(O)c4c(O)c(c(/C=N/N5CCN(C)CC5)c(O)c4c3C2=O)NC(=O)/C(C)=C\C=C\[C@H](C)[C@H](O)[C@@H](C)[C@@H](O)[C@@H](C)[C@H](OC(C)=O)[C@@H]1C [rifampicin]
Conditions	AUC25, [4]	Einf, [3]	GRinf, [5]	total FIC50, [1]	total FIC90, [2]
in vitro model: acidic pH 5.7, time point: constant (~7 days, model-specific)	0.0717	0.875	-0.146	0.484	–
in vitro model: acidic pH 5.7, time point: terminal (~4-5 doublings, model-specific)	0.0448	0.974	-0.163	0.652	0.221
in vitro model: intracellular J774, time point: constant = terminal	–	0.979	-0.304	–	0.0806

Conditions	AUC25, [4]	Einf, [3]	GRinf, [5]	total FIC50, [1]	total FIC90, [2]
in vitro model: butyrate, time point: constant (~7 days, model-specific)	0.0923	0.912	0.0241	0.355	0.227
in vitro model: butyrate, time point: terminal (~4-5 doublings, model-specific)	0.085	0.962	0.00652	0.25	0.434
in vitro model: cholesterol 0.05 mM, time point: constant (~7 days, model-specific)	0.0931	0.606	-0.000182	0.67	–
in vitro model: cholesterol 0.05 mM, time point: terminal (~4-5 doublings, model-specific)	0.0743	0.858	-0.0705	1.14	-0.636
in vitro model: cholesterol-high 0.2 mM, time point: constant (~7 days, model-specific)	0.0701	0.849	-0.468	0.869	1.29
in vitro model: cholesterol-high 0.2 mM, time point: terminal (~4-5 doublings, model-specific)	0.0765	0.996	-0.801	0.954	0.992
in vitro model: dormancy (butyrate + nitrate, low O2), time point: constant (~7 days, model-specific)	0.0676	0.883	0.23	0.689	0.327
in vitro model: dormancy (butyrate + nitrate, low O2), time point: terminal (~4-5 doublings, model-specific)	0.0531	0.965	-0.0626	0.662	0.913
in vitro model: standard 7H9 glycerol, time point: constant = terminal	0.0625	0.883	0.162	0.125	–
in vitro model: valerate, time point: constant (~7 days, model-specific)	0.0778	0.847	0.0569	0.325	–
in vitro model: valerate, time point: terminal (~4-5 doublings, model-specific)	0.0459	0.924	0.0455	0.877	0.41
